Assay results: patent publication US20190025285A1, “METHODS OF DETERMINING RELATIVE POTENCY OF GLATIRAMER ACETATE AND USE THEREOF IN PREPARING A BATCH OF GLATIRAMER ACETATE AS ACCEPTABLE FOR PHARMACEUTICAL USE” (InSight Biopharmaceutical Ltd., priority 2015, published 2019)

What was measured:
multiple sclerosis = conditions: cited from earlier work
[1] = tested on: Experimental Autoimmune Encephalomyelitis; conditions: various animal species; cited from earlier work
[2] = tested on: LNCs extracted from mice immunized with Poly-YAK (YB106); test: Ex-vivo potency assay: immunization with Poly-YAK (YB106), in-vitro stimulation of LNCs, IL-2 ELISA; format: cell-based, mouse; conditions: specificity samples as in-vitro stimulators
From the text: The present inventors developed an ex-vivo biological potency assay to determine the relative potency of GA based on effecting the first stimulus by immunizing mice in-vivo with Poly-YAK (also referred to as activation), and the second stimulus by in-vitro stimulation (also referred to as stimulation) with GA. The assay is composed of 6 major steps depicted in FIG. 1.
Briefly, mice are immunized with a pre-determined amount of Poly-YAK (YB106), mixed 1:1 with CFA (step 1). Eight to ten days later, the mice are sacrificed and draining lymph nodes are harvested. Lymph node cells (LNCs) are extracted from the lymph nodes and counted (step 2). […] The Level of IL-2 secretion from the cells into the culture media is determined by a commercial IL-2 ELISA (step 4).
In order to determine the relative potency of a tested batch, IL-2 secretion by the LNCs incubated with the tested batch samples is compared to the IL-2 secretion by the LNCs incubated with RS samples (step 5). Parallelism of the RS and tested batch curves and potency of the tested batch are determined accordingly (step 6). […]
Lymph node cells (LNCs) extraction—The primary culture of LNCs was prepared 8 to 10 days following immunization. […] The cells were then collected in 10-20 ml RPMI or AIM-V complete medium and counted by hemocytometer using Erythrosine B (Sigma, cat no. E9259). […]

Row | Substance | total number of enhancing lesions as measured by MRI (multiple sclerosis; MS patients, 20 mg/day subcutaneous dose) | frequency of relapses (multiple sclerosis; relapsing-remitting MS clinical trials) | suppression of EAE [1] | IL-2 secretion response pattern in comparison to RS [2]
1 | L-glutamic acid polymer with L-alanine, L-lysine and L-tyrosine, acetate (salt) [GA] | reduce the total number of enhancing lesions | reduce the frequency of relapses | suppress Experimental Autoimmune Encephalomyelitis | –
2 | MBP peptide (87-99): Myelin Basic Protein peptide 87-99 (BACHEM H-1964), negative control (SRPHLIRLFSRDA; UniProt P02686 87-99, looked up, fragment) | – | – | – | did not induce IL-2 secretion response
